Experimental data published in patent US20070191262A1, “Cancer Therapy and Prevention Based on Modulation of Complement activity” (University of Iowa Research Foundation, priority 2005, published 2007).
Like-named read-outs stand apart in the source and are kept apart here.

Tests used:
[1] = multiphasic clearance from plasma; cited from earlier work
[2] = patients with creatinine clearance >35 mL per minute; cited from earlier work
[3] = cited from earlier work
[4] = test system: Raji cells; assay: Complement-mediated killing of Raji cells in the presence of rituximab and serum from genotyped donors; format: cell-based, human
Procedure: FIG. 1—Percentage of live Raji cells after 72 hours incubation in the presence of rituximab and serum from donors with known C1qA[276] genotype.
(§1) C1qA polymorphism correlates with the ability of complement to opsonize and kill target cells in the presence of therapeutic antibodies. The inventors collected and coded serum samples from 10 healthy donors previously genotyped for C1qA[276A/G] polymorphism. The sera were extensively analyzed for function of complement and ability to opsonize target cells by members of an outside collaborative research group blinded to the identity of the donors and the C1q genotype. The results from killing experiments are presented in summary in FIG. 1. The experiments were designed to determine the ability of the complement from human sera to lyse and thus limit the proliferation of Raji cells, a CD20 expressing B-cell lymphoma cell line, in the presence of rituximab, an anti-CD20 monoclonal with extensive application in clinical therapy of lymphoma. […] The inventors are currently in the process of collecting additional sera for testing. In a one-way ANOVA, p value is 0.086 at this point. Assuming future results will go with the trend observed, the ANOVA test will be in the 0.002 range if only 2 homozygous of each kind are added, and excluding the heterozygous. A better test for this type of data would be Dunn's multiple comparison test. […]

[5] = test system: C3b deposition on B-cell surface; assay: C3b opsonization of target cells in the presence of rituximab and donor serum (flow cytometry); format: cell-based, human; details: serum from homozygous A donors
Source text: FIG. 2—Level of C3b opsonization of B-cell surface in the presence of rituximab and serum from individuals with known C1qA[276] genotype.
as §1

[6] = test system: follicular lymphoma; assay: Single agent rituximab therapy of follicular lymphoma, outcome by C1qA[276], CD32 and CD16 polymorphism; format: in vivo, human
Procedure: A polymorphism in the C1qA component of complement correlates with prolonged complete remission following rituximab therapy of follicular lymphoma. The non-coding polymorphism at C1qA[276] was examined in 90 patients with follicular lymphoma who were treated with rituximab (single agent) to assess whether a correlation exists between this genetic polymorphism of the complement pathway and clinical effectiveness of rituximab. The presence of an A versus a G allele at the C1qA[276] locus was determined using restriction fragment length polymorphism analysis by investigators blinded to the clinical outcome of the patients. The molecular and clinical data was then analyzed according to C1qA polymorphism, including measurement of radiographic response and duration of response, using methods similar to those used to evaluate the correlation between polymorphisms in CD16/CD32 genes and clinical outcome.
However, prolonged remission was noted among those subjects that achieved remission (either partial or complete response) for individuals who were carriers of the A allele at the C1qA[276] locus (AA or AG) compared to homozygous GG subjects. The strongest correlation was found among those subjects that achieved a complete remission to single agent rituximab. […] A allele was an independent factor for good prognosis, while FcγRIIIa 158 phenylalanine carrier and FcγRIIa 131 arginine carrier indicated poor survival. Thus, the relative risk was 0.2 for C1qA[276] AA/AG versus GG after controlling for CD32 and CD16 polymorphisms. The relative risks were 4.8 for CD32 HR versus HH and 6.16 for CD32 RR versus HH after controlling for complement and CD16 polymorphisms. The relative risks were 4.57 for CD16 VF against VV and 3.69 for CD16 FF versus VV after controlling for complement and CD32 polymorphisms.

CC[C@]1(O)C[C@H]2CN(CCc3c([nH]c4ccccc34)[C@@](C(=O)OC)(c3cc4c(cc3OC)N(C=O)[C@H]3[C@@](O)(C(=O)OC)[C@H](OC(C)=O)[C@]5(CC)C=CCN6CC[C@]43[C@@H]65)C2)C1 [Vincristine]
terminal half-life [1]: about 24 hr

Bleomycin
serum or plasma terminal elimination half-life [2]: approximately 115 min
tissue concentration ([3]; hematopoietic tissue / bone marrow): low concentrations
tissue concentration ([3]; mice, skin, lungs, kidneys, peritoneum, lymphatics): high concentrations

Rituximab: monoclonal antibody that targets CD20, which is found on more than 90% of non-Hodgkin's lymphomas
average lysis of Raji cells ([4]; heterozygous sera): moderate efficiency
ability of serum complement to lyse Raji cells ([4]; serum of homozygous C1qA[276A] donors versus homozygous G, 72 hours, p<0.04): significant decrease
deposition of C3b molecules on the surface of target cells [5]: least efficient
difference in response rate based on C1qA polymorphisms ([6]; 90 follicular lymphoma patients, single agent): No statistically significant difference
time to progression ([6]; C1qA[276] AA/AG subjects who achieved complete remission): 830 days
relative risk ([6]; C1qA[276] AA/AG versus GG, controlling for CD32 and CD16 polymorphisms): 0.2
time to progression ([6]; C1qA[276] GG subjects who achieved complete remission): 250 days
relative risk ([6]; CD16 FF versus VV, controlling for complement and CD32 polymorphisms): 3.69
relative risk ([6]; CD16 VF against VV, controlling for complement and CD32 polymorphisms): 4.57
relative risk ([6]; CD32 HR versus HH, controlling for complement and CD16 polymorphisms): 4.8
relative risk ([6]; CD32 RR versus HH, controlling for complement and CD16 polymorphisms): 6.16
HR (time to progression) ([6]; GG versus AA/AG, complete remission group, 95% CI=2.1-96.9): 4.1
